Source: patent publication US20240327418A1, “MULTI-TARGET INHIBITOR TARGETING HDAC AND NAD SYNTHESIS AND USE OF MULTI-TARGET INHIBITOR” (OCEAN UNIVERSITY OF CHINA, priority 2021, published 2024)
pIC50: −log10 of the molar value. Like-named read-outs stand apart in the source and are kept apart here.

Assays:
HDAC1 = HDAC1 (Homo sapiens (Human), UniProt Q13547); test: Inhibitory activity on HDAC1 (fluorescence enzyme assay); conditions: read-out: IC50 HDAC1; mean of three independent experiments
HDAC2 = HDAC2 (Homo sapiens (Human), UniProt Q92769); test: Inhibitory activity on HDAC2 (fluorescence enzyme assay); conditions: read-out: IC50 HDAC2; mean of three independent experiments
HDAC3 = HDAC3 (Homo sapiens (Human), UniProt O15379); test: Inhibitory activity on HDAC3 (fluorescence enzyme assay); conditions: read-out: IC50 HDAC3; mean of three independent experiments
[1] = tested on: acute myelogenous leukemia cells MV4-11; test: GI50 and LC50 by NCI method, MV4-11; assay type: cell-based; conditions: Homo sapiens, 48 hours, Cell Titer-Blue
Protocol: (§1) The median growth inhibitory concentration (GI50) and median lethal concentration (LC50) were determined by NCI method. Leukemia cell strains MV4-11, HL60, PL21, KASUMI-1, MONO-MAC-1 and NB-4 were cultured in an Iscove's Modified Dulbecco Medium (IMDM) containing 10% fetal bovine serum, were inoculated into a 96-well cell culture plate at a density of 10,000 cells/100 μL and cultured overnight. 6 wells were selected as Tz wells, 0.125 mg/mL Cell Titer-Blue dye was added, and the cells were cultured for 4 hours and then the fluorescence intensity at […] (excitation wavelength/emission wavelength) was read. Compounds of different concentrations were added to the remaining wells, and a 100% control group was set. After 48 hours of cultivation, 0.125 mg/mL Cell Titer-Blue dye was added and the fluorescence intensity at […] was read after 4 hours. The fluorescence intensity of the dosing group was represented by Ti, the fluorescence intensity of the 100% control group was represented by C, and the fluorescence intensity before dosing was represented by Tz.
(§2) If Ti≥Tz, the formula [(Ti−Tz)/(C−Tz)]×100 was used.
(§3) If Ti<Tz, the formula [(Ti−Tz)/Tz]×100 was used.
(§4) The GI50 and LC50 values of some compounds on leukemia cell strains MV4-11, HL60, PL21, KASUMI-1, MONO-MAC-1 and NB-4 are shown in FIG. 1, Table 3, FIG. 2, and Table 4.

[2] = tested on: acute myelogenous leukemia cells HL60; test: GI50 and LC50 by NCI method, HL60; assay type: cell-based; conditions: for CC50 / GI50: Homo sapiens, HL-60, 48 hours, Cell Titer-Blue
Protocol: as §1, §2, §3, §4

NAMPT = NAMPT (Homo sapiens (Human), UniProt P43490); test: Inhibitory activity on NAMPT; assay type: biochemical; conditions: for pIC50: mean of three independent experiments
leukemia cell line PL21 = test: GI50 and LC50 by NCI method, PL21; assay type: cell-based; conditions: PL-21; 48 hours, Cell Titer-Blue
Protocol: as §1, §2, §3, §4

[3] = tested on: leukemia cell line KASUMI-1; test: GI50 and LC50 by NCI method, KASUMI-1; assay type: cell-based; conditions: Homo sapiens, 48 hours, Cell Titer-Blue
Protocol: as §1, §2, §3, §4

[4] = tested on: leukemia cell line MONO-MAC-1; test: GI50 and LC50 by NCI method, MONO-MAC-1; assay type: cell-based; conditions: 48 hours, Cell Titer-Blue
Protocol: as §1, §2, §3, §4

leukemia cell line NB-4 = test: GI50 and LC50 by NCI method, NB-4; assay type: cell-based; conditions: 48 hours, Cell Titer-Blue; for GI50: read-out: NB4 GI50
Protocol: as §1, §2, §3, §4

MV4-11 tumor = test: In vivo anti-leukemia activity, MV4-11 tumor bearing model; conditions: MV4-11 tumor bearing nude mice; 4 mg/kg/d, day 23; panobinostat intraperitoneal
[5] = Pharmacokinetic properties in mice; assay type: in vivo; conditions: for F: po 20 mg/kg vs iv 5 mg/kg
[6] = mouse, plasma, po 20 mg/kg single dose

Chain of HDAC3 (O15379 whole entry, species assumed): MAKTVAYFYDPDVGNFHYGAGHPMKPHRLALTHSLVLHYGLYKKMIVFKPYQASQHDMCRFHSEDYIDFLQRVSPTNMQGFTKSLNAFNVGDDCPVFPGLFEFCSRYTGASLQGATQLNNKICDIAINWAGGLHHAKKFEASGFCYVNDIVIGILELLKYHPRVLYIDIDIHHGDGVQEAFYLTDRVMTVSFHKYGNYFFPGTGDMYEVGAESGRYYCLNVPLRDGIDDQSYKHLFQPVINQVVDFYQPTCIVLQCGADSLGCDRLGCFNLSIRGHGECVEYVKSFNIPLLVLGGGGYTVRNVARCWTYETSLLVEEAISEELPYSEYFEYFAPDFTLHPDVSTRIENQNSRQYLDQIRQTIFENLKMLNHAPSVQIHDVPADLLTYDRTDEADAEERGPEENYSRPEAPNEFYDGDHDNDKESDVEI
Chain of HDAC3 (Q9Y618 395-489 partner, species assumed): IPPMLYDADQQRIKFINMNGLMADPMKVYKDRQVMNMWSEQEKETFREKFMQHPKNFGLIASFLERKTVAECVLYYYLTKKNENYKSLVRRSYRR
Chain of NAMPT (P43490 whole entry, species assumed): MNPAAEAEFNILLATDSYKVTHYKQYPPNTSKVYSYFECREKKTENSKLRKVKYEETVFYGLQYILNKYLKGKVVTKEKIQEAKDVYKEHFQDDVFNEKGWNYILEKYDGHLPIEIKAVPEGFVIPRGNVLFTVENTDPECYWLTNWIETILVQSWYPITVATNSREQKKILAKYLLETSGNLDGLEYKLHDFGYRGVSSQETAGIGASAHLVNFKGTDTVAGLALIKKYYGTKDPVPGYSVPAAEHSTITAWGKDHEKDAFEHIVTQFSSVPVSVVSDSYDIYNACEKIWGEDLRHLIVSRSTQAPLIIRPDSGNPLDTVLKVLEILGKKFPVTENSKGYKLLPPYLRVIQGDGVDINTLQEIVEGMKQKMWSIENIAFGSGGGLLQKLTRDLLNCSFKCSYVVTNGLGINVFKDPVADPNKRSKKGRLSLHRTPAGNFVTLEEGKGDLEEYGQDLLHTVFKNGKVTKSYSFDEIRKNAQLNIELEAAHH
Chain of HDAC2 (Q92769 whole entry, species assumed): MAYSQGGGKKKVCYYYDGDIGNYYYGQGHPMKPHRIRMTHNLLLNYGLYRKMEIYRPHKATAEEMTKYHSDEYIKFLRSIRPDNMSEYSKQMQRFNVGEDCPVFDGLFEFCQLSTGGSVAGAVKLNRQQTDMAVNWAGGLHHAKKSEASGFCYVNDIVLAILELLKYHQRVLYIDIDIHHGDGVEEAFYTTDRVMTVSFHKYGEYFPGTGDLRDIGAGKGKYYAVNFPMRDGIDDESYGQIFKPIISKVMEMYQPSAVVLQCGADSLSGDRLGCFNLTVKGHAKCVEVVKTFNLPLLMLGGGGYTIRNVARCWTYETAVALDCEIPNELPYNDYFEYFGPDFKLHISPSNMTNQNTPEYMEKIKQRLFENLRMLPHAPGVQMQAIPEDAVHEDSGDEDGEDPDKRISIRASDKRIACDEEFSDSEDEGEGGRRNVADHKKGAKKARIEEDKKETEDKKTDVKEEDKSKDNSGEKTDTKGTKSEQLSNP
Chain of HDAC1 (Q13547 whole entry, species assumed): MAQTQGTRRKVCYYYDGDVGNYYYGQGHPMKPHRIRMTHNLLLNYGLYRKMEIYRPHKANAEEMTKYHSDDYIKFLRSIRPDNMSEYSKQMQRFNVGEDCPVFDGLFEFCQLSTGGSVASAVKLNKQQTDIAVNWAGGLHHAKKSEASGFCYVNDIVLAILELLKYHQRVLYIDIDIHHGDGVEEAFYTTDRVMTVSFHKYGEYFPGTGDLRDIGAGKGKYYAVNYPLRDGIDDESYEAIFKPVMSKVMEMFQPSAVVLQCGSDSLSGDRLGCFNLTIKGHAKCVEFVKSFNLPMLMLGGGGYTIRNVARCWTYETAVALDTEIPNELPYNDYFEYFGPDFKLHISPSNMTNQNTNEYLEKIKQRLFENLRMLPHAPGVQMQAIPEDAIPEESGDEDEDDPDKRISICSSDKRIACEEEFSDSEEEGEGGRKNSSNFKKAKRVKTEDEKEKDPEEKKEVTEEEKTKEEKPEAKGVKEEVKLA

Row | Structure (SMILES) | pIC50 (HDAC2) | pIC50 (HDAC3) | pIC50 (HDAC1) | GI50 [1] [nM] | LC50 (median lethal concentration) [1] [nM] | CC50 [2] [nM] | GI50 [2] [nM] | other results
1 | CCCNNC(=O)c1ccc(CNC(=O)c2cc3cnccc3o2)cc1 [LEE20, N-(4-(2-propylhydrazino-1-carbonyl)benzyl)furan[3,2-c]pyridine-2-carboxyamide] | 7.42 | 9.28 | 7.99 | 50.4 | 109 | > 10000 |  | 
2 | CCCNNC(=O)c1ccc(CNC(=O)/C=C/c2ccncc2)cc1 [LEE14, (E)-N-(4-(2-propylhydrazino-1-carbonyl)benzyl)-3-(pyridin-4-yl)acrylamide] | 7.05 | 8.56 | 7.90 | 14.3 | 83.6 | 6060 | 63.1 | LC50 values in p53-null cell strain HL60 (in words) [2]: nanomolar level
3 | CCCNNC(=O)c1ccc(NC(=O)CCCCCCNC(=O)/C=C/c2cccnc2)cc1 [LEE40, (E)-N-(4-(2-propylhydrazino-1-carbonyl)phenyl)-7-(3-(pyridine-3-yl)acrylamido) heptamide] | 6.91 | 7.91 |  | 15.7 |  |  |  | 
4 | COC(=O)c1ccc(CNC(=O)/C=C/c2cccnc2)cc1 [LEE43, methyl (E)-4-((3-(pyridine-3-yl)acrylamido)methyl) benzoate] |  |  |  |  |  |  |  | inhibitory activity against NAMPT (in words) (NAMPT): micromolar level; pIC50 (NAMPT): 5.33
5 | CCCNNC(=O)c1ccc(CNC(=O)/C=C/c2ccccn2)cc1 [LEE13, (E)-N-(4-(2-propylhydrazino-1-carbonyl)benzyl)-3-(pyridin-2-yl) acrylamide] | 7.31 | 8.74 | 7.88 | 15 | 125 | > 10000 | 128 | 
6 | CCCNNC(=O)CCCCCCNC(=O)c1cc2cnccc2[nH]1 [LEE7, N-(7-oxo-7-(2-propylhydrazino)heptyl)-3H-pyrrolo[3,2-c]pyridin-2-carboxamide] |  |  |  | 64.7 | 164 | 724 | 158 | LC50 values in p53-null cell strain HL60 (in words) [2]: nanomolar level
7 | O=C(/C=C/c1cccnc1)NCCCCC1CCN(C(=O)c2ccccc2)CC1 [FK866, reference compound] |  |  |  | 7.95 |  | > 10000 | 12.1 | 
8 | CCCNNC(=O)c1ccc(CNC(=O)c2cc3ccncc3[nH]2)cc1 [LEE21, N-(4-(2-propylhydrazino-1-carbonyl)benzyl)-1H-pyrrolo[2,3-c]pyridine-2-carboxamide] | 7.29 | 8.62 | 8.09 | 25.4 | 58 | > 10000 | 81.5 | 
9 | CCCNNC(=O)c1ccc(CNC(=O)/C=C/c2ccccc2)cc1 [Comparative example 1 LP411/3b, reference compound] | 7.02 |  | 7.93 | 66 |  | > 10000 | 121 | pIC50 (NAMPT): < 4.70; GI50 (leukemia cell line PL21): 523 nM; GI50 [3]: 17.8 nM; CC50 [4]: > 10000 nM; GI50 [4]: 16.3 nM; GI50 (leukemia cell line NB-4): 19.5 nM
10 | Nc1ccccc1NC(=O)CCCCCCCNC(=O)/C=C/c1cccnc1 [LEE8, (E)-N-(2-aminophenyl)-8-(3-(pyridin-3-yl)acrylamido) octanamide] | 6.49 | 7.58 | 6.83 | 31.2 | 456 |  |  | 
11 | CCCNNC(=O)c1ccc(CNC(=O)c2cc3ccccc3o2)cc1 [LEE16, N-(4-(2-propylhydrazino-1-carbonyl)benzyl)benzofuran-2-carboxyamide] | 7.73 | 9.36 | 8.52 | 30 | 57.8 | > 10000 | 75.2 | GI50 (leukemia cell line PL21): 34.3 nM; LC50 (median lethal concentration) (leukemia cell line PL21): > 10000 nM; GI50 [3]: 15.3 nM; LC50 [3]: 5360 nM; CC50 [4]: > 10000 nM; GI50 [4]: 25.3 nM; GI50 (leukemia cell line NB-4): 42.3 nM; LC50 (median lethal concentration) (leukemia cell line NB-4; read-out: NB4 LC50): > 10000 nM; Relative tumor proliferation rate (T/C %) (MV4-11 tumor): 25.4%; Tumor inhibitory rate (TGI %) (MV4-11 tumor): 78.4%; AUC(0-t) [5, 6]: 129000 ng·h/mL; Tmax [5, 6]: 30 min; Cmax ([5]; mouse, plasma, po 20 mg/kg single dose, read-out: Cmax): 34400 ng/mL; half-life ([5]; mouse, plasma, po 20 mg/kg single dose, read-out: t½ (converted)): 362 min; F [5]: 111%
12 | CCCNNC(=O)/C=C/c1ccc(CNCCc2c(C)[nH]c3ccccc23)cc1 [Comparative example 2 LP97/13a, reference compound] |  |  |  |  |  |  |  | pIC50 (NAMPT): < 4.70; AUC(0-t) [5, 6]: 242 ng·h/mL; Tmax [5, 6]: 30 min; Cmax ([5]; po 20 mg/kg single dose): 45.1 ng/mL; F [5]: 19.8%
13 | COC(=O)c1ccc(CNC(=O)c2cc3cnccc3[nH]2)cc1 [LEE44, methyl 4-((1H-pyrrolo[3,2-c]pyridine-2-carbonylamide)methyl) benzoate] |  |  |  |  |  |  |  | inhibitory activity against NAMPT (in words) (NAMPT): micromolar level; pIC50 (NAMPT): 5.17
14 | CCCNNC(=O)c1ccc(CNC(=O)c2cc3cnccc3s2)cc1 [LEE19, N-(4-(2-propylhydrazin-1-carbonyl)benzyl)thiopheno[3,2-c]pyridin-2-carboxamide] | 7.22 | 8.92 | 8.00 | 54 | 98.5 | > 10000 | 77.3 | 

Continued, in another order:

Row | pIC50 (HDAC2) | pIC50 (HDAC3) | Structure (SMILES) | pIC50 (HDAC1) | GI50 [1] [nM] | LC50 (median lethal concentration) [1] [nM] | CC50 [2] [nM] | GI50 [2] [nM] | other results
15 | 7.10 | 8.97 | CCCNNC(=O)c1ccc(NC(=O)CCCCCCCn2cc(-c3cccnc3)nn2)cc1 [LEE41, N-(4-(2-propylhydrazino-1-carbonyl)phenyl)-8-(4-(pyridin-3-yl)-1H-1,2,3-triazole-1-yl) octanamide] | 7.74 |  |  |  |  | 
16 | 6.73 | 8.06 | Nc1ccccc1NC(=O)CCCCCCCn1cc(-c2cccnc2)nn1 [LEE11, N-(2-aminophenyl)-8-(4-(pyridin-3-yl)-1H-1,2,3-triazole-1-yl) octanamide] |  |  |  |  |  | 
17 | 6.30 | 7.12 | CCCNNC(=O)CCCCCCCNC(=O)/C=C/c1cccnc1 [LEE4, (E)-N-(8-oxo-8-(2-propylhydrazino)octyl)-3-(pyridin-3-yl) acrylamide] | 6.62 |  |  |  |  | 
18 | 5.93 | 7.07 | CCCNNC(=O)c1ccc(CNC(=O)CCCCCCNC(=O)/C=C/c2cccnc2)cc1 [LEE39, (E)-N-(4-(2-propylhydrazino-1-carbonyl)benzyl)-7-(3-(pyridine-3-yl)acrylamido) heptanamide] | 6.30 |  |  |  |  | 
19 | 6.40 | 6.96 | CCCNNC(=O)CCCCCCNC(=O)NCc1cccnc1 [LEE5, 1-(7-oxo-7-(2-propylhydrazino)heptyl)-3-(pyridin-3-ylmethyl) urea] | 6.35 |  |  |  |  | 
20 | 6.27 | 7.01 | CCCNNC(=O)c1ccc(NC(=O)CCCCCCCNC(=O)/C=C/c2cccnc2)cc1 [LEE38, (E)-N-(4-(2-propylhydrazino-1-carbonyl)phenyl)-8-(3-(pyridine-3-yl)acrylamido) amide] | 6.21 |  |  |  |  | 
21 | 6.47 |  | CCCNNC(=O)CCCCCCNC(=O)/C=C/c1cccnc1 [LEE3, (E)-N-(7-oxo-7-(2-propylhydrazino)heptyl)-3-(pyridin-3-yl) acrylamide] |  |  |  |  |  | 
22 | 4.87 | 5.81 | CCCNNC(=O)CCNC(=O)/C=C/c1cccnc1 [LEE1, (E)-N-(3-oxo-3-(2-propylhydrazino)propyl)-3-(pyridin-3-yl) acrylamide] | < 5.00 |  |  |  |  | 
23 | 7.08 | 8.70 | CCCNNC(=O)c1ccc(CNC(=O)CCCCCCCNC(=O)/C=C/c2cccnc2)cc1 [LEE37, (E)-N-(4-(2-propylhydrazino-1-carbonyl)benzyl)-8-(3-(pyridine-3-yl)acrylamido) octanamide] | 7.75 |  |  |  |  | 
24 | 5.70 | 6.95 | CCCNNC(=O)CCCCNC(=O)/C=C/c1cccnc1 [LEE2, (E)-N-(5-oxo-5-(2-propylhydrazino)pentyl)-3-(pyridin-3-yl) acrylamide] | 6.16 |  |  |  |  | 
